Where “and” joins values, the source holds several entries; their conditions need not be identical. Identical values can stand only once. Inconclusive results and toxic doses are left out. Rule for the calls: active = survival T/C of 150% or more; inactive = T/C below 125% in these data.
Test system: BDF1 mice, B16 melanoma ip, median survival T/C
Assay: NCI In Vivo Anticancer Drug Screen. Data for tumor model B16 Melanoma (intraperitoneal) in B6D2F1 (BDF1) mice
Settings: endpoint: median survival time, higher = longer survival
How it was run: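 Tumor-bearing mice received test compound or vehicle. Survival or tumor size was then measured in both groups. The treated-group figure was divided by the control-group figure.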

[1] = dose: 1.56 mg/kg/injection, schedule: Q01DX009 (ip), vehicle: Klucel (hydroxypropylcellulose) (HPC)
[2] = dose: 50.0 mg/kg/injection, schedule: Q01DX009 (ip), vehicle: Klucel (hydroxypropylcellulose) (HPC)
[3] = dose: 100.0 mg/kg/injection, schedule: Q01DX009 (ip), vehicle: Klucel (hydroxypropylcellulose) (HPC)
[4] = dose: 200.0 mg/kg/injection, schedule: Q01DX009 (ip), vehicle: Klucel (hydroxypropylcellulose) (HPC)

Measured: T/C

CC(C)NCC(O)COc1cccc2ccccc12 (configuration not stated)
inactive: dose: 4.0 mg/kg/injection, schedule: Q01DX009 (ip), vehicle: Klucel (hydroxypropylcellulose) (HPC) 99 % of control and 112 % of control | dose: 8.0 mg/kg/injection, schedule: Q01DX009 (ip), vehicle: Klucel (hydroxypropylcellulose) (HPC) 101 % of control | dose: 16.0 mg/kg/injection, schedule: Q01DX009 (ip), vehicle: Klucel (hydroxypropylcellulose) (HPC) 98 % of control and 108 % of control | dose: 32.0 mg/kg/injection, schedule: Q01DX009 (ip), vehicle: Klucel (hydroxypropylcellulose) (HPC) 91 % of control and 95 % of control | dose: 64.0 mg/kg/injection, schedule: Q01DX009 (ip), vehicle: Klucel (hydroxypropylcellulose) (HPC) 97 % of control and 101 % of control

CCCCCCCCCCCCCCCC(=O)N(CCCN(CC)CC)C(C)CCCN(CC)CC (configuration not stated)
inactive: dose: 0.78 mg/kg/injection, schedule: Q01DX009 (ip), vehicle: water 103 % of control | [1] 110 % of control | dose: 1.56 mg/kg/injection, schedule: Q01DX009 (ip), vehicle: water 104 % of control | dose: 3.13 mg/kg/injection, schedule: Q01DX009 (ip), vehicle: Klucel (hydroxypropylcellulose) (HPC) 102 % of control | dose: 3.13 mg/kg/injection, schedule: Q01DX009 (ip), vehicle: water 104 % of control | dose: 6.25 mg/kg/injection, schedule: Q01DX009 (ip), vehicle: Klucel (hydroxypropylcellulose) (HPC) 86 % of control and 97 % of control | dose: 6.25 mg/kg/injection, schedule: Q01DX009 (ip), vehicle: water 90 % of control

CC(C)(C)C1CCCCC1
inactive: dose: 12.5 mg/kg/injection, schedule: Q01DX009 (ip), vehicle: Klucel (hydroxypropylcellulose) (HPC) 96 % of control | dose: 25.0 mg/kg/injection, schedule: Q01DX009 (ip), vehicle: Klucel (hydroxypropylcellulose) (HPC) 105 % of control | [2] 95 % of control | [3] 88 % of control

CCc1ccccc1NC(=O)Nc1ccccc1
inactive: [3] 90 % of control | dose: 100.0 mg/kg/injection, schedule: Q04DX003 (ip), vehicle: Klucel (hydroxypropylcellulose) (HPC) 100 % of control | [4] 90 % of control | dose: 200.0 mg/kg/injection, schedule: Q04DX003 (ip), vehicle: Klucel (hydroxypropylcellulose) (HPC) 100 % of control | dose: 400.0 mg/kg/injection, schedule: Q04DX003 (ip), vehicle: Klucel (hydroxypropylcellulose) (HPC) 92 % of control

N#Cc1ccc(Br)cc1[N+](=O)[O-]
inactive: dose: 0.39 mg/kg/injection, schedule: Q01DX009 (ip), vehicle: Klucel (hydroxypropylcellulose) (HPC) 93 % of control | dose: 0.78 mg/kg/injection, schedule: Q01DX009 (ip), vehicle: Klucel (hydroxypropylcellulose) (HPC) 93 % of control | [1] 106 % of control

O=C(Nc1cccc(C(F)(F)F)c1)NC1CCCCC1
inactive: dose: 100.0 mg/kg/injection, schedule: Q04DX003 (ip), vehicle: gum acacia 87 % of control | dose: 200.0 mg/kg/injection, schedule: Q04DX003 (ip), vehicle: gum acacia 89 % of control | dose: 400.0 mg/kg/injection, schedule: Q04DX003 (ip), vehicle: gum acacia 87 % of control

CC(Br)C(=O)NCC(=O)O (configuration not stated)
inactive: dose: 12.5 mg/kg/injection, schedule: Q01DX009 (ip), vehicle: saline 101 % of control | dose: 25.0 mg/kg/injection, schedule: Q01DX009 (ip), vehicle: saline 90 % of control | dose: 50.0 mg/kg/injection, schedule: Q01DX009 (ip), vehicle: saline with Tween-80 95 % of control | dose: 50.0 mg/kg/injection, schedule: Q01DX009 (ip), vehicle: saline 101 % of control

Cc1ccc(NC(=O)c2ccccc2Cl)cc1Cl
inactive: dose: 75.0 mg/kg/injection, schedule: Q01DX009 (ip), vehicle: Klucel (hydroxypropylcellulose) (HPC) 103 % of control | dose: 150.0 mg/kg/injection, schedule: Q01DX009 (ip), vehicle: Klucel (hydroxypropylcellulose) (HPC) 103 % of control | dose: 300.0 mg/kg/injection, schedule: Q01DX009 (ip), vehicle: Klucel (hydroxypropylcellulose) (HPC) 100 % of control

O=[N+]([O-])c1cc([N+](=O)[O-])c(Br)cc1Cl
inactive: dose: 2.5 mg/kg/injection, schedule: Q01DX009 (ip), vehicle: saline with Tween-80 92 % of control | dose: 5.0 mg/kg/injection, schedule: Q01DX009 (ip), vehicle: saline with Tween-80 98 % of control | dose: 10.0 mg/kg/injection, schedule: Q01DX009 (ip), vehicle: saline with Tween-80 87 % of control | dose: 20.0 mg/kg/injection, schedule: Q01DX009 (ip), vehicle: Klucel (hydroxypropylcellulose) (HPC) 94 % of control

COc1cc2c3c(c4ccc(OC)c(OC)c4c2cc1OC)CN1CCC[C@@H]1C3
inactive: dose: 2.0 mg/kg/injection, schedule: Q01DX009 (ip), vehicle: saline with Tween-80 97 % of control | dose: 4.0 mg/kg/injection, schedule: Q01DX009 (ip), vehicle: saline with Tween-80 89 % of control | dose: 8.0 mg/kg/injection, schedule: Q01DX009 (ip), vehicle: saline with Tween-80 102 % of control and 118 % of control | dose: 16.0 mg/kg/injection, schedule: Q01DX009 (ip), vehicle: saline with Tween-80 106 % of control

CCCC[P+](CCCC)(CCCC)C(C)C
inactive: dose: 12.5 mg/kg/injection, schedule: Q01DX009 (ip), vehicle: saline with Tween-80 106 % of control | dose: 25.0 mg/kg/injection, schedule: Q01DX009 (ip), vehicle: saline with Tween-80 104 % of control

O=c1oc(-c2ccc3c(c2)OCO3)nc2ccccc12
inactive: [2] 98 % of control | [3] 99 % of control | [4] 91 % of control
